Here are results for six compounds from US20110160594A1 (priority 2008, published 2011).

The subject of this assay is Pyricularia oryzae. Type of assay: cell-based. As to conditions: liquid culture, incubation with compound 24-48 h.
As to `CNC(=O)/C(=N/OC)c1ccccc1CO/N=C(C)/C(=N/OC)C(/C)=N/OC` [orysastrobin], the “branch of the dendrogram of IR spectra (FIG. 8)” value (shortened to “branch”) is “clustered together in the second branch”. On to `COC(=O)N(OC)c1ccccc1COc1ccn(-c2ccc(Cl)cc2)n1` [pyraclostrobin], for which the “branch” value is listed as “clustered together in the second branch”.

Regarding propioconazole, the “branch” value is recorded as “third branch of the dendrogram”. As for `CO/C=C(/C(=O)OC)c1ccccc1Oc1cc(Oc2ccccc2C#N)ncn1` [azoxystrobin], the entry is “clustered together in the second branch”.

For the compound `CCCCC(C#N)(Cn1cncn1)c1ccc(Cl)cc1` (stereo not drawn) [myclobutanil], the “branch” value is “third branch of the dendrogram”. The entry for `Fc1ccc([C@]2(Cn3cncn3)O[C@H]2c2ccccc2Cl)cc1` (racemic) [epoxiconazole] is “third branch of the dendrogram”.
